Laboratory results: patent publication US20230200394A1, “SELECTIVE HERBICIDES BASED ON SUBSTITUTED ISOXAZOLIN CARBOXAMIDES AND BENOXACOR” (BAYER AKTIENGESELLSCHAFT, priority 2020, published 2023)

System: ZEAMA Sileno
Assay: Safener seed treatment; pre-emergence herbicide application, visual scoring of % crop damage in greenhouse
Format: in vivo, maize
Conditions: for HER effect [%] / HER effect + SAF [%]: crop damage, pre-emergence; for HER effect [%]: herbicide alone (no safener); for HER effect + SAF [%]: seed treated with Benoxacor 0.25 g a.i./kg seed; for Reduction [Difference]: herbicide damage without safener minus with Benoxacor 0.25 g a.i./kg seed; for Reduction [%]: reduction of herbicide damage by Benoxacor 0.25 g a.i./kg seed, relative to damage without safener
Description: Seed Treatment; Pre-Emergence For the safener seed treatment, sufficient seeds of the respective crops (spring wheat, TRZAS; spring barley, HORVS; maize, ZEAMA) were weighed into screw top glass bottles approximately twice the volume of the seeds. The specified safeners, formulated as wettable powder (WP) were weighed out so that the specified rates (g a.i./kg seed) would be obtained, dissolved in water (1 ml water per 10 g of seeds), and added to the seeds to produce a slurry. The bottles were capped and then placed in an overhead shaker (set at medium speed for ca. 60 minutes) so that the seeds were evenly coated with the slurry. The bottles were uncapped and the seeds were either placed on paper and dried for an interval of 3-4 hours prior to sowing, or directly sown. Seeds were placed in sandy loam soil in pots of a diameter of 7-8 cm, and covered with soil. Pre-emergence application of the specified herbicides was done subsequently, on two sets of plants: a) seed treatment with safener, as described above b) no safener treatment The herbicides were formulated as WP and was sprayed onto the soil surface as an aqueous suspension at an equivalent water application rate of 300 l/ha. After application, the test plants were kept in the greenhouse under good growth conditions. At intervals up to 4 weeks after application (=28 days after treatment; DAT), % crop damage observed on the treated plants was scored visually in comparison to control plants that had not received any safener or herbicide treatment. Values in the table below are mean values of at least 2 replicates.

[1] = HER dose 40 g a.i./ha, assessment 14 DAT
[2] = HER dose 80 g a.i./ha, assessment 14 DAT
[3] = HER dose 40 g a.i./ha, assessment 26 DAT

| SMILES | HER effect [%] [1] | HER effect [%] [2] | HER effect + SAF [%] (HER dose 40 g a.i./ha, 14 DAT) | HER effect + SAF [%] (HER dose 80 g a.i./ha, 14 DAT) | Reduction [Difference] (HER dose 40 g a.i./ha, 14 DAT) | Reduction [Difference] (HER dose 80 g a.i./ha, 14 DAT) | Reduction [%] (HER dose 40 g a.i./ha, 14 DAT) | Reduction [%] (HER dose 80 g a.i./ha, 14 DAT) | HER effect [%] [3] | HER effect + SAF [%] (HER dose 40 g a.i./ha, 26 DAT) | Reduction [Difference] (HER dose 40 g a.i./ha, 26 DAT) | Reduction [%] (HER dose 40 g a.i./ha, 26 DAT) | HER effect [%] (HER dose 80 g a.i./ha, assessment 26 DAT) | HER effect + SAF [%] (HER dose 80 g a.i./ha, 26 DAT) | Reduction [Difference] (HER dose 80 g a.i./ha, 26 DAT) | Reduction [%] (HER dose 80 g a.i./ha, 26 DAT) |
| --- | --- | --- | --- | --- | --- | --- | --- | --- | --- | --- | --- | --- | --- | --- | --- | --- |
| CC1(C(=O)NC2C=CC(C(=O)O)C2)CC(c2cc(F)cc(F)c2)=NO1 (stereo not shown) [Example 1.36] | 60% | 83% | 40% | 60% | 20 | 23 | 33% | 28% |  |  |  |  |  |  |  |  |
| C=CC1(C(=O)NC2COC(C(=O)OC)C2)CC(c2cc(F)cc(F)c2)=NO1 (mixture of isomers) [Example 1.68] |  |  |  |  |  |  |  |  | 95% | 60% | 35 | 37% |  |  |  |  |
| C=CC1(C(=O)NC2C=CC(C(=O)OC)C2)CC(c2cc(F)cc(F)c2)=NO1 (stereo not shown) [Example 1.26] | 25% | 70% | 5% | 35% | 20 | 35 | 80% | 50% | 50% | 5% | 45 | 90% | 70% | 30% | 40 | 57% |
